{"source": "patent EP1333824B1", "about": "“TREATMENT OF SEXUAL DYSFUNCTION WITH BOMBESIN RECEPTOR ANTAGONISTS” (Warner-Lambert Company LLC, priority 2000, dated 2002)", "key": {"[1]": {"test_system": "Sprague Dawley male rats", "assay": "Sexual behaviour of normal (sexually vigorous) male rats", "assay_type": "in vivo, rat", "settings": "Compound (1) 15mg/kg or Fluoxetine 20mg/kg i.p. 1h before tests, vs vehicle", "protocol": "Sprague Dawley male rats (Charles River, UK) were kept, 4 rats per cage, in a reversed lighting regime (12:12 hours, lights off at 5.00 h), with free access to food and water. The rats were pre-selected by being presented with a receptive female at 4 days intervals, i.e. every third day (having 2 clear days between presentations) until completing 6-7 days of baseline determination. The animals showing consistently vigorous behaviour (ejaculatory latencies <300s) were chosen for further experiments (n=24). Animals were randomised into three groups. All animals received all three treatments following a latin-square design. Treatments were administered once a week, with a baseline test in between treatments (4 days intervals between baseline and test day). […] All treatments were administered i.p. in a 1ml/kg volume, 1h before tests.\nFor all the sexual behaviour tests, the males were placed in an observation arena (50-60 cm diameter), starting 5 hours into the dark cycle and observed under red illumination. Three to 4 minutes after placing the male in the arena, a receptive female (ovariectomised, bearing a 7 mm Silastic implant of oestradiol benzoate) was introduced to the arena and the following parameters noted: Mount Latency: time (in seconds) taken between introduction of female and first mount. A maximum time of 15 minutes (900 seconds) was allowed, and the test terminated if no mounts were recorded within that time (Figure 11), Intromission Latency: time (in seconds) taken between introduction of female and first intromission (Figure 12), Number of Mounts: to reach ejaculation. When ejaculation was not reached, the number of mounts was not analyzed, Number of Intromissions: to reach ejaculation. When ejaculation was not reached, the number of intromissions was not analyzed (Figure 13 is number of mounts + intromissions), Ejaculation Latency: time (in seconds) taken from first intromission to ejaculation. A maximum time of 30 minutes (1800 seconds) was given, and the test terminated if ejaculation was not achieved in that time (Figure 14), and Refractory Period: time (in seconds) taken from ejaculation to the first mount of the next series of sexual activity. In those animals reaching ejaculation the test was terminated at the end of the refractory period, as indicated by the first mount of the next sexual cycle (Figure 15).\nA one-way ANOVA followed by Dunnett's t test was used to compare treated vs vehicle groups each day of testing, for all the sexual behaviour parameters."}, "[2]": {"test_system": "Ovariectomised adult female Sprague Dawley rats", "assay": "Female rat sexual receptivity test (lordosis quotient, LQ)", "assay_type": "in vivo", "settings": "Example 2; after vs before administration (paired t test); Compound (1) 10mg/kg i.p. 1h; quinelorane 6.25µg/kg s.c. 90min", "protocol": "Ovariectomised adult female Sprague Dawley rats (180-200g, from Charles River) were housed in groups of 6 in a reversed lighting system of 12h light:dark (lights off 7.00-19.00h). Two weeks after ovariectomy they were used for sexual activity tests. The experiments started at least 5h into the dark period.\nIt was administered intraperitoneally (i.p.) at a dose of 10mg/kg, in a dosing volume of 1ml/kg. […] Forty eight hours before testing, ovariectomised female rats (as described above), were primed with 5µg oestradiol benzoate dissolved in corn oil and injected subcutaneously. […] The females were placed with a series of vigorous male rats and subjected to 10 mounts.\nThe lordotic response of the animal was recorded and expressed as a percentage of the mounts (i.e. lordosis quotient, LQ), as previously described. Animals showing LQ<20 were considered non-receptive and were included in the study. Each rat was tested prior to administration of the compound and then tested similarly post-injection.\nThe above compound was dissolved in PEG200 vehicle and administered orally. […] Both compounds were administered in a 1ml/kg volume.\nForty eight hours before tests, the animals were primed with 5µg oestradiol benzoate (Sigma Chemical. Co. Ltd., UK) dissolved in corn oil and injected subcutaneously. The females were placed with a series of vigorous male rats and subjected to 10 mounts. The lordotic response of the animal was recorded and expressed as a percentage of the mounts (i.e. lordosis quotient, LQ). […] Animals showing higher LQ were not included in the study. Each rat was tested prior to administration of the compound and then tested similarly at 1h and 90min post-injection of the above compound or quinelorane respectively."}}, "data": [{"smiles": "COc1ccc(C2(CNC(=O)[C@](C)(Cc3c[nH]c4ccccc34)NC(=O)Nc3ccc([N+](=O)[O-])cc3)CCCCC2)nc1", "note": "[Compound (1), (S) 3-(1H-Indol-3-yl)-N-[1-(5-methoxy-pyridin-2-yl)-cyclohexyl-methyl]-2-methyl-2-[3-(4-nitro-phenyl)-ureido]-propionamide]", "values": [{"measurement": "Ejaculation latency", "setting": "[1]", "value": "no effect"}, {"measurement": "Intromission latency", "setting": "[1]", "value": "no effect"}, {"measurement": "Mount latency", "setting": "[1]", "value": "no effect"}, {"measurement": "Refractory period", "setting": "[1]", "value": "no effect"}, {"measurement": "number of mounts and intromissions required to achieve ejaculation", "setting": "[1]", "value": "no effect"}, {"measurement": "lordosis quotient (LQ)", "setting": "[2]", "value": "significant (P<0.05) stimulatory effect on the LQ"}]}]}
